# Test results from patent US20010053795A1, “Paradoxical pharmacology” (priority 2000, published 2001).
# Test system: spontaneously hypertensive rat (SHR)
# Assay: Blood pressure (tail-cuff) in spontaneously hypertensive rats after L-NAME infusion
# Type: in vivo
# Conditions: L-NAME 10 ml/kg/10 min for 10 min
# Description: To determine a possible mechanism underlying the decrease in blood pressure after infusion of NE/E, L-NAME (N(omega)-nitro-L-arginine methyl ester), which is a nitric oxide synthase inhibitor, was infused at a rate of 10 ml/kg/10 min for a total 10 min. After infusion of the L-NAME, blood pressure was measured via the tail-cuff method. FIG. 3 illustrates the effect of the blood pressure after infusion of L-NAME.
# Nitric oxide is tonically released by the activity of the constitutive endothelial and neuronal NO synthases (NOS). Nitric oxide is vasodilatory, and tonically produced NO maintains low blood pressure. During exercise, there is an increase in norepinephrine and an increase in nitric oxide production. […] The increase in production of nitric oxide is due to an activation of nitric oxide synthase, which in turn increase the levels of nitric oxide.
structure (smiles),measurement,setting,value
"COC(=O)[C@@H](N)CCCNC(=N)N[N+](=O)[O-] [L-NAME, N(omega)-nitro-L-arginine methyl ester]",effect on blood pressure after L-NAME infusion,SHR treated with NE/E for 28 days,increase in blood pressure
same,effect on blood pressure after L-NAME infusion,SHR treated with vehicle for 28 days (controls),further decrease in the blood pressure
